Data on four molecules can be found in PMC6104039 (Nature Communications, 2018).

Molecules are shown by their SMILES.

Assay type in all cases: biochemical
For one experiment, the target named is T1, human CerS2 (Homo sapiens, UniProt Q96G23).
T1 sequence (Q96G23 1-380): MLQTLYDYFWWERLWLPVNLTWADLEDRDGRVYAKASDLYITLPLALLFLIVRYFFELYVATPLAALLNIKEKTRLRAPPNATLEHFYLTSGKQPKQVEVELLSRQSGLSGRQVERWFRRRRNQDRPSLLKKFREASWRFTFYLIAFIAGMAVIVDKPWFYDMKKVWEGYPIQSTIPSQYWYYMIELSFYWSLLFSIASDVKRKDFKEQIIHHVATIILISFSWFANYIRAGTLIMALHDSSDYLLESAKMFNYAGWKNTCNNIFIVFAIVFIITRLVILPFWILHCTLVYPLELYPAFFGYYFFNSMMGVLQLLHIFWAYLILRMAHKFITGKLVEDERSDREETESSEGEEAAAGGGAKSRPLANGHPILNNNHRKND
Nature of the experiment: Ceramide synthase assay, NBD-dihydrosphingosine, C24:1-CoA; HEK293 cells expressing human CerS2. The settings on record: inhibitor range 10 nM–100 μM; read-out: IC50 hCerS2. How it is done:
Ceramide synthase assays were carried out using an HPLC-based assay with a fluorescent NBD-dihydrosphingosine substrate. All cell lines used for these assays were originally sourced from ATCC. […] Cells were sonicated in a Diagenode Bioruptor sonicating bath for 5 min, after which cell extracts were cleared by centrifugation at 800 × g for 10 min. Protein concentration in the supernatant was assayed using the bicinchoninic acid (BCA) assay, and the supernatant stored at −80 °C. COS cells were infected with lentiviral constructs expressing murine CerS1, 2, or 5, then homogenised as described above.
The reaction buffer consisted of 20 mM Hepes pH 7.4, 25 mM KCl, 2 mM MgCl2, 0.5 mM dithiothreitol, 0.1% fatty acid free BSA, 10 μM NBD-dihydrosphingosine and 50 μM fatty acid free BSA. C18:0-CoA was used as the fatty acyl substrate for CerS1 and CerS4; C24:1-CoA for CerS2; and C16:0-CoA for CerS5 and CerS6. All reactions were run in triplicate. Test inhibitors were added, after which reactions were started with the addition of 2.5–25 μg lysate protein (optimised depending on the particular CerS isoform being assayed). […] The reaction mixture was transferred to a glass HPLC vial with 300 μL fused glass insert (Thermo Fisher Scientific) and NBD-dihydroceramide reaction products were analysed on a Thermo Scientific Surveyor HPLC connected to a Shimadzu RF-10AXL fluorescent detector (set to gain of 3). […] The gradient started at 20:80 A/B, increasing to 5:95 A/B over 2 min, then to 100% B over 6 min. The gradient was then held at 100% B for 2 min, before re-equilibration to 20:80 A/B for a further 2 min. Peak areas were integrated using Xcalibur software (Thermo Fisher Scientific).

In another experiment the target is T2, murine CerS5 (Mus musculus, UniProt Q9D6K9).
T2 construct: expressed in transfected cells; host or cells: COS cells (lentiviral infection)
T2 sequence (Q9D6K9 1-414): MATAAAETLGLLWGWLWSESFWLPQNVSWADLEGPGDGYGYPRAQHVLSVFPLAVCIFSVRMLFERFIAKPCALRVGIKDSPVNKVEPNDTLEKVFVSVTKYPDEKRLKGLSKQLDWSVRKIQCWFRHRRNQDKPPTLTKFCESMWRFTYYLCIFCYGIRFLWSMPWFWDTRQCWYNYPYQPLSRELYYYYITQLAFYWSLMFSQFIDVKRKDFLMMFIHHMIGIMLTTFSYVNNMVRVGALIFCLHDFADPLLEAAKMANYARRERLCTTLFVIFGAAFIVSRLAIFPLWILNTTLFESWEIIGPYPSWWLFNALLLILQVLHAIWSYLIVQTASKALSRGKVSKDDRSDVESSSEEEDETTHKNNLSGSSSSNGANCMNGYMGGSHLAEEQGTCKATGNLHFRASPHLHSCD
Kind of experiment: Ceramide synthase assay, NBD-dihydrosphingosine, C16:0-CoA; COS cells expressing murine CerS5. The settings on record: inhibitor range 10 nM–100 μM; read-out: IC50 mCerS5. Here is the method: (§1) Ceramide synthase assays were carried out using an HPLC-based assay with a fluorescent NBD-dihydrosphingosine substrate. All cell lines used for these assays were originally sourced from ATCC. […] Human CerS expression plasmids (pCMV6 plasmids from Origene) were transfected using FuGene-6 transfection reagent, and cells were harvested 24 h after transfection in 20 mM Hepes pH 7.4, 10 mM KCl, 1 mM dithiothreitol, 3 mM β-glycerophosphate, and EDTA-free complete protease inhibitor cocktail (Roche). Cells were sonicated in a Diagenode Bioruptor sonicating bath for 5 min, after which cell extracts were cleared by centrifugation at 800 × g for 10 min. Protein concentration in the supernatant was assayed using the bicinchoninic acid (BCA) assay, and the supernatant stored at −80 °C. COS cells were infected with lentiviral constructs expressing murine CerS1, 2, or 5, then homogenised as described above.
(§2) The reaction buffer consisted of 20 mM Hepes pH 7.4, 25 mM KCl, 2 mM MgCl2, 0.5 mM dithiothreitol, 0.1% fatty acid free BSA, 10 μM NBD-dihydrosphingosine and 50 μM fatty acid free BSA. C18:0-CoA was used as the fatty acyl substrate for CerS1 and CerS4; C24:1-CoA for CerS2; and C16:0-CoA for CerS5 and CerS6. All reactions were run in triplicate. Test inhibitors were added, after which reactions were started with the addition of 2.5–25 μg lysate protein (optimised depending on the particular CerS isoform being assayed). Assays were run for 30 min at 37 °C, and stopped with the addition of 200 μL methanol. The reaction mixture was transferred to a glass HPLC vial with 300 μL fused glass insert (Thermo Fisher Scientific) and NBD-dihydroceramide reaction products were analysed on a Thermo Scientific Surveyor HPLC connected to a Shimadzu RF-10AXL fluorescent detector (set to gain of 3). […] Data was acquired over a 12 min chromatography run using: solvent A, 0.2% formic acid, 2 mM ammonium formate in water; solvent B, 0.2% formic acid, 1 mM ammonium formate in methanol. The gradient started at 20:80 A/B, increasing to 5:95 A/B over 2 min, then to 100% B over 6 min. The gradient was then held at 100% B for 2 min, before re-equilibration to 20:80 A/B for a further 2 min. Peak areas were integrated using Xcalibur software (Thermo Fisher Scientific).

A further experiment addresses T3, human CerS4 (Homo sapiens, UniProt Q9HA82).
T3 construct: host or cells: U251
T3 sequence (Q9HA82 1-394): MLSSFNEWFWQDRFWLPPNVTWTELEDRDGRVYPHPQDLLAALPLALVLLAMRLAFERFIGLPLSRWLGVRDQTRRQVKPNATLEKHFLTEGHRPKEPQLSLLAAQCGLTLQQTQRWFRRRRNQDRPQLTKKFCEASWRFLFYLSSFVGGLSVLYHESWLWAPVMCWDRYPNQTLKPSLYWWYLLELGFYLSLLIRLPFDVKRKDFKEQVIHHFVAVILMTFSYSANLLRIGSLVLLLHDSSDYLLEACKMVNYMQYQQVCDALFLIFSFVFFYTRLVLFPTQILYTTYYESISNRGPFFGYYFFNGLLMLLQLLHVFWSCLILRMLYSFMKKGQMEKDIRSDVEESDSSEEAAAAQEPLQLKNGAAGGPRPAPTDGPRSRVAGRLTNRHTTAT
Nature of the experiment: Ceramide synthase assay, NBD-dihydrosphingosine, C18:0-CoA; U251 cells expressing human CerS4. The conditions noted are these: inhibitor range 10 nM–100 μM; read-out: IC50 hCerS4. Here is the method:
as §1, §2

For orientation: IC50 means the point on the concentration scale where inhibition reaches its midpoint. Turning to `C[C@@](N)(CO)CCc1ccc(OCc2ccccc2)cc1` [G024, (2S)-2-amino-4-(4′-benzyloxyphenyl)-2-methyl-1-butanol], the values for the IC50 at human CerS2, at murine CerS5 and on human CerS4 were 14.5 ± 0.09 µM, 24.3 ± 0.22 µM and 18 ± 0.12 µM, respectively.

In the case of `C[C@@](N)(CO)CCc1ccc(OCc2ccc(Cl)c(Cl)c2)cc1` [P053, (S)-2-amino-4-(4-(3,4-dichlorobenzyloxy)phenyl)-2-methylbutan-1-ol], the IC50 is 28.6 ± 0.15 µM at human CerS2, 7.2 ± 0.1 µM at murine CerS5 and 17.2 ± 0.09 µM at human CerS4.

As to `CCCCCCCCc1ccc(CCC(N)(CO)CO)cc1` [FTY720, reference compound], the IC50 on human CerS2 stood at 19.1 ± 0.1 µM; at murine CerS5, 15 ± 0.07 µM; at human CerS4, 26 ± 0.18 µM.

For `CCCC[C@@H](C)[C@@H](OC(=O)C[C@@H](CC(=O)O)C(=O)O)[C@H](C[C@@H](C)C[C@H](O)CCCC[C@@H](O)C[C@H](O)[C@H](C)N)OC(=O)C[C@@H](CC(=O)O)C(=O)O` [FB1, reference compound], the concentration for half-maximal inhibition (IC50) at human CerS2 was 0.15 ± 0.08 µM; on murine CerS5 it was 0.5 ± 0.05 µM; on human CerS4, 0.92 ± 0.06 µM.
